The text below walks through data of EPA's ToxValDB 9.5 (doi:10.2903/j.efsa.2013.3469).

Data set [1] concerns Typhlodromus pyri. The data set can be described thus: LR50; higher = less toxic. To be noted: not reported; mortality.
Another data set relates to Bibionidae. Particulars: chronic/long-term; duration: 28 days; development.
Data set [2] has as its system Typhlodromus pyri. To be noted: not reported; mortality.
The subject of a further data set is Tagia sp. Particulars: acute, duration: 14 days.
The subject of the next data set is Daphnia magna. Particulars: chronic/long-term; duration: 21 days; reproduction.
A further data set concerns Folsomia candida. Particulars: chronic/long-term; mortality.
A further data set relates to Apis mellifera. Particulars: acute; oral; unspecified; mortality.
The test system of another data set is Anas platyrhynchos. Particulars: oral, mortality.

Values after ≈ are worked out from the molar mass of the structure shown. Some results are limits rather than exact numbers.

Broadly, the NOAEL is the highest tested level that showed no adverse finding. For the compound `CC1(C)[C@H](C(=O)O[C@H](C#N)c2cccc(Oc3ccccc3)c2)[C@@H]1/C=C\C(=O)OC(C(F)(F)F)C(F)(F)F` [Acrinathrin], the LR50 in the data set with Typhlodromus pyri [1] was 0.006 g/ha. Moreover, the LD50 with Colinus virginianus (acute, oral, mortality) was above 2250 mg/kg-day; with Rattus norvegicus (acute, oral, mortality), above 5000 mg/kg-day; in the data set with Apis mellifera it was 0.077 µg/piece; with Anas platyrhynchos (acute, unspecified), above 2000 mg/kg-day. Besides, the NOEC was 19.9 mg/kg-day with Colinus virginianus (reproduction developmental, reproduction); 325 mg/kg-day with Colinus virginianus (short-term, oral, diet, mortality); 3.1e-05 mg/L in the data set with Bibionidae; 0.00068 g/ha in the data set on Typhlodromus pyri [2]; 1.6 mg/kg in the data set on Tagia sp. (biomass); 3.2e-06 mg/L in the data set with Daphnia magna. The NOEC is below 1 mg/kg with Folsomia candida; 1.1e-05 mg/L in the data set with Pimephales promelas (chronic/long-term, duration: 28 days); 173 mg/kg-day with Anas platyrhynchos (short-term, feed). In addition, the LC50 in the data set with Tagia sp. (mortality) was above 1000 mg/kg; in the data set with Pimephales promelas (acute, duration: 96 hours, mortality), 1.7 ng/mL (≈ 3.14 nM). Moreover, the NOAEL in the data set with Rattus norvegicus (acute, oral, neurology) came out at 1 mg/kg-day; in the data set with Rattus norvegicus (reproduction developmental, no effects), 9.4 mg/kg-day.
